Source: PubChem BioAssay AID1918996 (Molecular Pharmacology Branch, DTP, NCI, 2023)
Where “and” joins values, the source holds several entries; their conditions need not be identical. Equal values may be shown once.

System: 349418-098-R-PDC complex spheroid growth
Assay: Anticancer human tumor 349418-098-R-PDC patient-derived lung adenocarcinoma cell line growth inhibition [AhR]
Conditions: for viability, T/C: stronger effect = lower value
Summary of the method: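 Agents were dosed in half-log steps down from roughly clinical Cmax, or from 10 microM where Cmax was unknown, alone and with AhR antagonists. Read-out: percent test/control growth of tumor spheroids containing HUVEC and MSC stromal cells.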

[1] = curve of first compound, second compound 0.1 µM
[2] = curve of first compound, second compound 0.316 µM
[3] = curve of first compound, second compound 1 µM
[4] = curve of first compound, second compound 3.16 µM
[5] = curve of first compound, second compound 10 µM
[6] = second compound 0.1 µM, first compound 0.0316 µM
[7] = second compound 0.1 µM, first compound 0.1 µM
[8] = second compound 0.1 µM, first compound 0.316 µM
[9] = second compound 0.1 µM, first compound 1 µM
[10] = second compound 0.1 µM, first compound 3.16 µM
[11] = second compound 0.1 µM, first compound 10 µM
[12] = second compound 0.316 µM, first compound 0.0316 µM
[13] = second compound 0.316 µM, first compound 0.1 µM
[14] = second compound 0.316 µM, first compound 0.316 µM
[15] = second compound 0.316 µM, first compound 1 µM
[16] = second compound 0.316 µM, first compound 3.16 µM
[17] = second compound 0.316 µM, first compound 10 µM
[18] = second compound 1 µM, first compound 0.0316 µM
[19] = second compound 1 µM, first compound 0.1 µM
[20] = second compound 1 µM, first compound 0.316 µM
[21] = second compound 1 µM, first compound 1 µM
[22] = second compound 1 µM, first compound 3.16 µM
[23] = second compound 1 µM, first compound 10 µM
[24] = second compound 3.16 µM, first compound 0.0316 µM
[25] = second compound 3.16 µM, first compound 0.1 µM
[26] = second compound 3.16 µM, first compound 0.316 µM
[27] = second compound 3.16 µM, first compound 1 µM
[28] = second compound 3.16 µM, first compound 3.16 µM
[29] = second compound 3.16 µM, first compound 10 µM
[30] = second compound 10 µM, first compound 0.0316 µM
[31] = second compound 10 µM, first compound 0.1 µM
[32] = second compound 10 µM, first compound 0.316 µM
[33] = second compound 10 µM, first compound 1 µM
[34] = second compound 10 µM, first compound 3.16 µM
[35] = second compound 10 µM, first compound 10 µM
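Also: spheroids exposed to agents for seven days before luminescence viability read.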
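For viability, T/C in this document: spheroids also contain HUVEC endothelial cells and human MSC stroma.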

SMILES	IC50 [1]	IC50 [2]	IC50 [3]	IC50 [4]	IC50 [5]	viability, T/C [6]	viability, T/C [7]	viability, T/C [8]	viability, T/C [9]	viability, T/C [10]	viability, T/C [11]	viability, T/C [12]	viability, T/C [13]	viability, T/C [14]	viability, T/C [15]	viability, T/C [16]	viability, T/C [17]	viability, T/C [18]	viability, T/C [19]	viability, T/C [20]	further results
CC1COCCN1c1cc(C2(S(C)(=N)=O)CC2)nc(-c2ccnc3[nH]ccc23)n1 (configuration not stated) + Cc1ccccc1N=Nc1ccc(NC(=O)c2ccnn2C)c(C)c1	2080 nM	2000 nM	1960 nM	2040 nM	1030 nM	87%	110%	86.5%	83.6%	31%	14.4%	87.8%	78%	78.6%	89.7%	27.7%	13.4%	89.2%	123%	86.8%	viability, T/C [21]: 66.8%; viability, T/C [22]: 39.9%; viability, T/C [23]: 16%; viability, T/C [24]: 90.8%; viability, T/C [25]: 76.9%; viability, T/C [26]: 97.9%; viability, T/C [27]: 79.3%; viability, T/C [28]: 31.8%; viability, T/C [29]: 15.3%; viability, T/C [30]: 69.5%; viability, T/C [31]: 70.1%; viability, T/C [32]: 56.6%; viability, T/C [33]: 55.5%; viability, T/C [34]: 28.9%; viability, T/C [35]: 17.1%
CC1(C)CCC(CN2CCN(c3ccc(C(=O)NS(=O)(=O)c4ccc(NCC5CCOCC5)c([N+](=O)[O-])c4)c(Oc4cnc5[nH]ccc5c4)c3)CC2)=C(c2ccc(Cl)cc2)C1 + Cc1ccccc1N=Nc1ccc(NC(=O)c2ccnn2C)c(C)c1	5800 nM	6030 nM	6540 nM	3540 nM	3260 nM	116%	111%	116%	92.9%	71.6%	31.6%	81.5%	81.1%	64.4%	70%	86.1%	29.1%	101%	82.1%	84.7%	viability, T/C [21]: 79.7%; viability, T/C [22]: 85.7%; viability, T/C [23]: 29.2%; viability, T/C [24]: 76.9%; viability, T/C [25]: 65.9%; viability, T/C [26]: 73.3%; viability, T/C [27]: 66.1%; viability, T/C [28]: 52%; viability, T/C [29]: 26%; viability, T/C [30]: 54.6%; viability, T/C [31]: 59.8%; viability, T/C [32]: 65.1%; viability, T/C [33]: 51.8%; viability, T/C [34]: 52%; viability, T/C [35]: 25.9%
Nc1ccccc1NC(=O)c1ccc(CNC(=O)OCc2cccnc2)cc1 + Cc1cncc(-c2nc(NCCc3c[nH]c4ccccc34)c3ncn(C(C)C)c3n2)c1	612 nM	759 nM	517 nM	< 31.6 nM	< 31.6 nM	79.9%	69.6%	58.4%	46.7%	19.9%	4.89%	69.7%	73.5%	57.3%	47.7%	25.6%	4.93%	72.6%	67.5%	54.9%	viability, T/C [21]: 43.2%; viability, T/C [22]: 20.1%; viability, T/C [23]: 4.95%; viability, T/C [24]: 12.8%; viability, T/C [25]: 15.7%; viability, T/C [26]: 9.2%; viability, T/C [27]: 12.1%; viability, T/C [28]: 7.68%; viability, T/C [29]: 2.59%; viability, T/C [30]: 1%; viability, T/C [31]: 1.06%; viability, T/C [32]: 0.67%; viability, T/C [33]: 0.76%; viability, T/C [34]: 0.51%; viability, T/C [35]: 0.34%
O=C(C=Cc1cccc(S(=O)(=O)Nc2ccccc2)c1)NO + CC(CO)NC(=O)c1cc(-c2ccc(Cl)cc2)nn(-c2cnn(C)c2)c1=O	572 nM	615 nM	638 nM	567 nM	445 nM	85.8%	94%	69.8%	30%	8.25%	1.75%	110%	101%	75.5%	31.5%	7.87%	1.86%	99.8%	109%	77%	viability, T/C [21]: 31.8%; viability, T/C [22]: 8.85%; viability, T/C [23]: 1.91%; viability, T/C [24]: 90.7%; viability, T/C [25]: 102%; viability, T/C [26]: 68.4%; viability, T/C [27]: 30.1%; viability, T/C [28]: 7.44%; viability, T/C [29]: 1.82%; viability, T/C [30]: 72.7%; viability, T/C [31]: 82.5%; viability, T/C [32]: 53.6%; viability, T/C [33]: 32.1%; viability, T/C [34]: 7.16%; viability, T/C [35]: 1.98%
Nc1ccn(C2OC(CO)C(O)C2(F)F)c(=O)n1 (configuration not stated) + CC(CO)NC(=O)c1cc(-c2ccc(Cl)cc2)nn(-c2cnn(C)c2)c1=O	< 31.6 nM	< 31.6 nM	< 31.6 nM	< 31.6 nM	< 31.6 nM	11.7%	13.3%	12.8%	10.8%	9.89%	7.31%	11.5%	12.5%	13.3%	10.6%	9.24%	6.37%	12.7%	13.5%	13.3%	viability, T/C [21]: 11.2%; viability, T/C [22]: 8.78%; viability, T/C [23]: 5.77%; viability, T/C [24]: 12.1%; viability, T/C [25]: 13.4%; viability, T/C [26]: 12.8%; viability, T/C [27]: 9.14%; viability, T/C [28]: 7.92%; viability, T/C [29]: 7.72%; viability, T/C [30]: 12.3%; viability, T/C [31]: 11%; viability, T/C [32]: 11.6%; viability, T/C [33]: 8.92%; viability, T/C [34]: 7.77%; viability, T/C [35]: 8.23%
Nc1ncn(C2CC(O)C(CO)O2)c(=O)n1 (configuration not stated)	–	–	–	–	–	–	–	–	–	–	–	–	–	–	–	–	–	–	–	–	viability, T/C (compound 0.00316 µM): 105% and 99.7% and 103%; viability, T/C (compound 0.01 µM): 103% (2×) and 68.3%; viability, T/C (compound 0.0316 µM): 80% and 57.7% and 46.6%; viability, T/C (compound 0.1 µM): 67% and 49.8% and 46.6%; viability, T/C (compound 0.316 µM): 38.9% and 42.3% and 32.5%; viability, T/C (compound 1 µM): 32.3% and 31.3% and 26.1%; IC50 (curve of compound): 204 nM and 54 nM and 32.5 nM
